From ChEMBL document CHEMBL5625212, “De novo designed self-assembling helicomimetic lipooligoureas with antibacterial activity” (Eur J Med Chem, 2023)
Values after ≈ are worked out from the molar mass of the structure shown.

What was measured:
Staphylococcus aureus [1] = experiment: Antibacterial activity against Staphylococcus aureus ATCC 29213 assessed as reduction in bacterial growth measured after 24 hrs by spectrophotometer based analysis; assay type: functional
Staphylococcus aureus [2] = experiment: Antibacterial activity against methicillin resistant Staphylococcus aureus 4811/13 assessed as reduction in bacterial growth measured after 24 hrs by spectrophotometer based analysis; assay type: functional
[3] = system: Staphylococcus epidermidis; experiment: Antibacterial activity against Staphylococcus epidermidis ATCC 12228 assessed as reduction in bacterial growth measured after 24 hrs by spectrophotometer based analysis; assay type: functional
Staphylococcus aureus [4] = experiment: Antibacterial activity against methicillin resistant Staphylococcus aureus 5288/13 assessed as reduction in bacterial growth measured after 24 hrs by spectrophotometer based analysis; assay type: functional
Enterococcus faecalis = experiment: Antibacterial activity against Enterococcus faecalis ATCC 14506 assessed as reduction in bacterial growth measured after 24 hrs by spectrophotometer based analysis; assay type: functional
Staphylococcus aureus [5] = experiment: Antibacterial activity against methicillin resistant Staphylococcus aureus 401/5 assessed as reduction in bacterial growth measured after 24 hrs by spectrophotometer based analysis; assay type: functional
[6] = Aggregation property of compound in PBS assessed as critical aggregation concentration; assay type: physicochemical; settings: buffer
[7] = Proteolytic stability of the compound in human serum assessed as drug degradation measured after 96 hrs by RP-HPLC analysis; assay type: ADME, cell-free; settings: read-out: Drug degradation
Escherichia coli = experiment: Antibacterial activity against Escherichia coli ST2-8624 O157 H7 assessed as reduction in bacterial growth measured after 24 hrs by spectrophotometer based analysis; assay type: functional
Yersinia enterocolitica = experiment: Antibacterial activity against Yersinia enterocolitica PCM 2081 assessed as reduction in bacterial growth measured after 24 hrs by spectrophotometer based analysis; assay type: functional
[8] = Proteolytic stability of the compound in human serum assessed as drug degradation measured after 24 hrs by RP-HPLC analysis; assay type: ADME, cell-free; settings: read-out: Drug degradation
Pseudomonas aeruginosa = experiment: Antibacterial activity against Pseudomonas aeruginosa PA01 PCM 499 assessed as reduction in bacterial growth measured after 24 hrs by spectrophotometer based analysis; assay type: functional
Salmonella typhimurium = experiment: Antibacterial activity against Salmonella enterica subsp. enterica serovar Typhimurium TT622 assessed as reduction in bacterial growth measured after 24 hrs by spectrophotometer based analysis; assay type: functional
Klebsiella pneumoniae = experiment: Antibacterial activity against Klebsiella pneumoniae PCM 1 assessed as reduction in bacterial growth measured after 24 hrs by spectrophotometer based analysis; assay type: functional
[9] = Proteolytic stability of the compound in human serum assessed as drug degradation measured within 4 hrs by RP-HPLC analysis; assay type: ADME, cell-free

SMILES | MIC (Staphylococcus aureus [1]) | MIC (Staphylococcus aureus [2]) | MIC [3] | MIC (Staphylococcus aureus [4]) | MIC (Enterococcus faecalis) | MIC (Staphylococcus aureus [5]) | CAC [6] | metabolised at 96 h [7] | MIC (Escherichia coli) | MIC (Yersinia enterocolitica) | metabolised at 24 h [8] | MIC (Pseudomonas aeruginosa) | MIC (Salmonella typhimurium) | MIC (Klebsiella pneumoniae) | Stability [9]
CCCCCCCCCC(=O)N[C@@H](Cc1c[nH]c2ccccc12)C(=O)N[C@H](CC(N)=O)C(=O)N[C@@H](CC(=O)O)C(=O)N[C@@H]1C(=O)NCC(=O)N[C@@H](CCCN)C(=O)N[C@@H](CC(=O)O)C(=O)N[C@H](C)C(=O)N[C@@H](CC(=O)O)C(=O)NCC(=O)N[C@H](CO)C(=O)N[C@@H]([C@H](C)CC(=O)O)C(=O)N[C@@H](CC(=O)c2ccccc2N)C(=O)O[C@@H]1C | 2 µg/mL (≈ 1.23 µM) | 2 µg/mL (≈ 1.23 µM) | 1 µg/mL (≈ 0.617 µM) | 2 µg/mL (≈ 1.23 µM) | 3.5 µg/mL (≈ 2.16 µM) | 1.5 µg/mL (≈ 0.926 µM) | – | – | – | – | – | – | – | – | –
CCCCCCCCCC(=O)N[C@H](CNC(=O)N[C@@H](CCCCN)CNC(=O)N[C@@H](CCCCN)CN[C@H](CNC(=O)N[C@@H](CCCCN)CNC(N)=O)CC(C)C)Cc1ccccc1 | 30 µg/mL (≈ 32.7 µM) | 30 µg/mL (≈ 32.7 µM) | 30 µg/mL (≈ 32.7 µM) | 40 µg/mL (≈ 43.6 µM) | – | 30 µg/mL (≈ 32.7 µM) | 79 µM | 15% | – | – | – | – | – | – | –
CCCCCCCCCC(=O)N[C@H](CNC(=O)N[C@@H](CCN)CNC(=O)N[C@H](CN[C@H](CNC(=O)N[C@@H](CCN)CNC(N)=O)CC(C)C)CC(C)C)Cc1ccccc1 | 5 µg/mL (≈ 5.9 µM) | 5 µg/mL (≈ 5.9 µM) | 5 µg/mL (≈ 5.9 µM) | 5 µg/mL (≈ 5.9 µM) | 5 µg/mL (≈ 5.9 µM) | 5 µg/mL (≈ 5.9 µM) | 40 µM | 8% | 10 µg/mL (≈ 11.8 µM) | 10 µg/mL (≈ 11.8 µM) | 4% | 10 µg/mL (≈ 11.8 µM) | 20 µg/mL (≈ 23.6 µM) | 20 µg/mL (≈ 23.6 µM) | –
CCCCCCCCCC(=O)N[C@H](CNC(=O)N[C@@H](CCN)CNC(=O)N[C@@H](CCN)CN[C@H](CNC(=O)N[C@@H](CCN)CNC(N)=O)CC(C)C)Cc1ccccc1 | 20 µg/mL (≈ 24 µM) | 30 µg/mL (≈ 36 µM) | 20 µg/mL (≈ 24 µM) | 30 µg/mL (≈ 36 µM) | 40 µg/mL (≈ 48 µM) | 20 µg/mL (≈ 24 µM) | 87 µM | 8% | – | – | – | – | – | – | –
CCCCCCCCCC(=O)N[C@H](CNC(=O)N[C@@H](CCN)CNC(=O)N[C@@H](CCN)CN[C@H](CNC(=O)N[C@H](CNC(N)=O)CC(C)C)CC(C)C)Cc1ccccc1 | 10 µg/mL (≈ 11.8 µM) | 10 µg/mL (≈ 11.8 µM) | 10 µg/mL (≈ 11.8 µM) | 10 µg/mL (≈ 11.8 µM) | 20 µg/mL (≈ 23.6 µM) | 10 µg/mL (≈ 11.8 µM) | 56 µM | 8% | 30 µg/mL (≈ 35.4 µM) | 30 µg/mL (≈ 35.4 µM) | – | 30 µg/mL (≈ 35.4 µM) | 30 µg/mL (≈ 35.4 µM) | 30 µg/mL (≈ 35.4 µM) | –
NC(=O)[C@H](Cc1ccccc1)NC(=O)[C@H](Cc1ccccc1)NC(=O)[C@@H]1CCCN1C(=O)[C@@H](N)Cc1ccc(O)cc1 [ENDOMORPHIN 2] | – | – | – | – | – | – | – | – | – | – | – | – | – | – | Unstable
